Non-standard residues stand in square brackets, D forms with d. Residues, ends and D or L forms follow the SMILES beside them. *: point of attachment. Cyclohexanoyl(1S,3S-3-NH2) = N[C@H]1CCC[C@H](C(=O)*)C1; Trp(5-OH) = N[C@@H](Cc1c[nH]c2ccc(O)cc12)C(=O)O; NH(4-morpholinophenyl) = c1cc(N2CCOCC2)ccc1N*; Bip = N[C@@H](Cc1ccc(-c2ccccc2)cc1)C(=O)O; hArg = N=C(N)NCCCC[C@H](N)C(=O)O
Key:
[1] = test system: motor neurons co-cultured with iAstrocytes derived from sALS patients; assay type: cell-based, mouse; conditions: 100 μM, 3 days co-culture
EphA4 = conditions: cited from earlier work
[2] = test system: SOD1(G93A) transgenic mice; conditions: daily in vivo administration; cited from earlier work
EphA4-LBD = EphA4-LBD (Homo sapiens, UniProt P54764, C204A); assay: 2D [13C,1H] NMR chemical shift perturbations with 13Cε-Met labeled EphA4-LBD
EphA4-LBD, sequence (P54764 29-209 C204A): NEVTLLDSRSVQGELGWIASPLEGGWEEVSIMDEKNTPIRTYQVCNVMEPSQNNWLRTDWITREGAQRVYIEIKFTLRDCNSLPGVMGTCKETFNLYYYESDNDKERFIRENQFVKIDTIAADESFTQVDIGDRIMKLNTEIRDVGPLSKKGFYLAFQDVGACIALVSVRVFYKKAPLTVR

Compound	protection of motor neurons from sALS iAstrocytes (motor neuron survival) [1]	agonistic activity for EphA4 in primary cortical neurons (EphA4)	survival [2]	Kd (EphA4-LBD) [nM]
COc1ccc2[nH]cc(CCNC(=O)[C@H](Cc3ccncc3)NC(=O)[C@H](Cc3ccc(Cl)cc3)NC(=O)[C@H](Cc3c[nH]c4ccc(O)cc34)NC(=O)CCCN)c2c1 [123C4]	able to protect mouse motor neurons	induced receptor phosphorylation and growth cone collapse	significantly prolonged survival	–
N=C(N)NCCCC[C@H](NC(=O)[C@H](Cc1ccc(-c2ccccc2)cc1)NC(=O)[C@H](Cc1c[nH]c2ccc(O)cc12)NC(=O)[C@H]1CCC[C@H](N)C1)C(=O)NCC(=O)Nc1ccc(N2CCOCC2)cc1 [compound 33] ({Cyclohexanoyl(1S,3S-3-NH2)}-[Trp(5-OH)][Bip][hArg]G-{NH(4-morpholinophenyl)})	–	–	–	< 60

From paper PMC8555409 (Journal of medicinal chemistry, 2021)
